According to article PMC3395780 (Journal of Medicinal Chemistry, 2012):
Where two headings read alike, the source gives them in different places.

Assays:
[1] = system: L5178Y mouse lymphoma cells; conditions: no reference printed at b52; cited from earlier work
[2] = system: Salmonella typhimurium strain TA100; experiment: Ames assay, plate incorporation method; assay type: cell-based
[3] = system: Salmonella typhimurium strain TA98; experiment: Ames assay, plate incorporation method; assay type: cell-based
[4] = system: L5178Y mouse lymphoma cells; experiment: Mouse lymphoma cell tk+/−→tk−/− gene mutation; assay type: cell-based; conditions: for Mutation frequency response in MOLY assay: in the presence or absence of metabolic activation (S9), non-cytotoxic dose levels
NRP Mtb H37Rv cells = experiment: Low-oxygen recovery assay; assay type: cell-based, Mycobacterium tuberculosis; conditions: non-replicating Mtb, anaerobic 10 d + 28-h recovery; ~90% inhibition
[5] = system: Vero cells (Vero ATCC CCL-81); experiment: Cytotoxicity against Vero cells; conditions: 72 h incubation
Mtb H37Rv [6] = experiment: TB MIC – SRI, resazurin-based microplate assay; assay type: cell-based, Mycobacterium tuberculosis; conditions: lowest concentration inhibiting ≥90% growth
Mtb H37Rv [7] = experiment: TB MIC – ITR; assay type: cell-based, Mycobacterium tuberculosis; conditions: ITR laboratory
[8] = Plasma pharmacokinetics after oral administration to female mice; assay type: in vivo, mouse
M. abscessus = experiment: Antimicrobial spectrum of activity; assay type: cell-based; conditions: SI Table 1
M. smegmatis = experiment: Antimicrobial spectrum of activity; assay type: cell-based; conditions: relative to activity against Mtb; SI Table 1
[9] = in the presence and absence of metabolic activation (10% rat-liver S9)

In the case of `Nc1n[n+]([O-])c2ccccc2[n+]1[O-]` [TPZ, tirapazamine], the “Mutagenicity in MOLY assay” value [1] is given as “mutagenic”.

In the case of `CCNc1n[n+]([O-])c2cc3c(cc2[n+]1[O-])CCC3` [Compound 15fa, 3-(ethylamino)-7,8-dihydro-6H-indeno[5,6-e][1,2,4]triazine 1,4-dioxide], the “Number of revertant colonies, strain TA100” value [2] is reported as “dose-related increases in the number of revertant colonies”, the “Number of revertant colonies, strain TA98” value [3] is reported as “dose-related increases in the number of revertant colonies” and the “Mutagenic potential, +S9, 4-Hr Exposure” value ([4]; dose 10 μg/mL) is reported as “Positive”. The “Mutagenic potential, +S9, 24-Hr Exposure” value ([4]; dose 10 μg/mL) was “Positive”, the “Mutagenic potential, −S9, 4-Hr Exposure” value ([4]; dose 10 μg/mL) was “Positive” and the “Mutagenic potential, +S9, 4-Hr Exposure” value ([4]; dose 25 μg/mL) was “Positive”. The “Mutagenic potential, +S9, 24-Hr Exposure” value ([4]; dose 25 μg/mL) was “Positive”, the “Mutagenic potential, −S9, 4-Hr Exposure” value ([4]; dose 25 μg/mL) was “Positive” and the “Mutagenic potential, +S9, 4-Hr Exposure” value ([4]; dose 50 μg/mL) was “Positive”. For the same molecule, the “Mutagenic potential, +S9, 24-Hr Exposure” value ([4]; dose 50 μg/mL) was “Positive”, the “Mutagenic potential, −S9, 4-Hr Exposure” value ([4]; dose 50 μg/mL) was “Positive” and the “Mutagenic potential, +S9, 4-Hr Exposure” value ([4]; dose 100 μg/mL) was “Positive”. For the same molecule, the “Mutagenic potential, +S9, 24-Hr Exposure” value ([4]; dose 100 μg/mL) was “Positive”, the “Mutagenic potential, −S9, 4-Hr Exposure” value ([4]; dose 100 μg/mL) was “Positive” and the “Mutation frequency response in MOLY assay” value [4] was “significant increase in mutation frequency”.

For “7-fluoro-3-((1-methoxybutan-2-yl)amino)benzo[e][1,2,4]triazine 1,4-dioxide [Compound 15ai]”, the “LORA MIC – ITR” value (NRP Mtb H37Rv cells) was 1.9 µg/mL, the “Vero Tox CC50” value [5] was 6.3 µg/mL and the “TB MIC – SRI” value (Mtb H37Rv [6]) was 5.0 µg/mL. The “TB MIC – ITR” value (Mtb H37Rv [7]) was 2.0 µg/mL.

With “7-chloro-3-((1-methoxybutan-2-yl)amino)benzo[e][1,2,4]triazine 1,4-dioxide [Compound 15bi]” the “TB MIC – SRI” value (Mtb H37Rv [6]) was 1.2 µg/mL.

With `[O-][n+]1nc(N2CCCC2)[n+]([O-])c2cc3c(cc21)CCC3` [Compound 20q, 3-(pyrrolidin-1-yl)-7,8-dihydro-6H-indeno[5,6-e][1,2,4]triazine 1,4-dioxide] the “Plasma drug concentration at the 24 hr time point” value ([8]; female mice, 100 mg/kg po, n = 3 per time point) was “lower than the limit of quantitation”, the “Number of revertant colonies, strain TA100” value [2, 9] was “dose-related increases in the number of revertant colonies” and the “Antimicrobial activity against M. abscessus” value (M. abscessus) was “resistant”. For the same molecule, the “Antimicrobial activity against M. smegmatis” value (M. smegmatis) was “weaker activity”, the “Number of revertant colonies, strain TA98” value [3, 9] was “dose-related increases in the number of revertant colonies” and the “Mutagenic activity in MOLY assay” value ([4]; at concentrations up to 100 μg/mL) was “no mutagenic activity”. For the same molecule, the “Mutagenic potential, +S9, 4-Hr Exposure” value ([4]; dose 10 μg/mL) was “Negative”, the “Mutagenic potential, −S9, 4-Hr Exposure” value ([4]; dose 10 μg/mL) was “Negative” and the “Mutagenic potential, −S9, 24-Hr Exposure” value ([4]; dose 10 μg/mL) was “Negative”. For the same molecule, the “Mutagenic potential, +S9, 4-Hr Exposure” value ([4]; dose 25 μg/mL) was “Negative ^a”, the “Mutagenic potential, +S9, 24-Hr Exposure” value ([4]; dose 25 μg/mL) was “Negative” and the “Mutagenic potential, −S9, 4-Hr Exposure” value ([4]; dose 25 μg/mL) was “Negative”. The “Mutagenic potential, −S9, 24-Hr Exposure” value ([4]; dose 25 μg/mL) was “Negative”, the “Mutagenic potential, +S9, 4-Hr Exposure” value ([4]; dose 50 μg/mL) was “Negative” and the “Mutagenic potential, +S9, 24-Hr Exposure” value ([4]; dose 50 μg/mL) was “Negative”. For the same molecule, the “Mutagenic potential, −S9, 4-Hr Exposure” value ([4]; dose 50 μg/mL) was “Negative”, the “Mutagenic potential, −S9, 24-Hr Exposure” value ([4]; dose 50 μg/mL) was “Negative” and the “Mutagenic potential, +S9, 4-Hr Exposure” value ([4]; dose 100 μg/mL) was “Negative”. For the same molecule, the “Mutagenic potential, +S9, 24-Hr Exposure” value ([4]; dose 100 μg/mL) was “Negative”, the “Mutagenic potential, −S9, 4-Hr Exposure” value ([4]; dose 100 μg/mL) was “Negative” and the “Mutagenic potential, −S9, 24-Hr Exposure” value ([4]; dose 100 μg/mL) was “Negative”. The “Mutation frequency response in MOLY assay” value [4] was “negative response”.

With “3-((1-methoxybutan-2-yl)amino)benzo[e][1,2,4]triazine 1,4-dioxide [Compound 8i]” the “LORA MIC – ITR” value (NRP Mtb H37Rv cells) was 4.9 µg/mL, the “Vero Tox CC50” value [5] was >50 µg/mL and the “TB MIC – SRI” value (Mtb H37Rv [6]) was 10.0 µg/mL. The “TB MIC – ITR” value (Mtb H37Rv [7]) was 6.6 µg/mL.

In the case of `CCNc1n[n+]([O-])c2ccccc2[n+]1[O-]` [Compound 8a, 3-(ethylamino)benzo[e][1,2,4]triazine 1,4-dioxide], the “Plasma drug concentration at the 24 hr time point” value ([8]; mouse, in vivo, po, 100 mg/kg) is reported as “lower than the limit of quantitation”, the “Antimicrobial activity against M. abscessus” value (M. abscessus) is reported as “resistant” and the “Antimicrobial activity against M. smegmatis” value (M. smegmatis) is reported as “weaker activity”.
